# Activity calls are given as the source filed them. No rule for the calls is given here.
# Molecular target: Mu-type opioid receptor (Homo sapiens) + Delta-type opioid receptor (Homo sapiens) (UniProt P35372+P41143)
# Assay: agonists of MOR-DOR heterodimerization, dose response, counter-screen for MC4R biased agonist project, cell-based, luminescence (AID 602264)
# Conditions: cell-based OPRM1-OPRD1 heterodimerization
# Sequence of Mu-type opioid receptor (Homo sapiens) + Delta-type opioid receptor (Homo sapiens) (P35372 whole entry, looked up): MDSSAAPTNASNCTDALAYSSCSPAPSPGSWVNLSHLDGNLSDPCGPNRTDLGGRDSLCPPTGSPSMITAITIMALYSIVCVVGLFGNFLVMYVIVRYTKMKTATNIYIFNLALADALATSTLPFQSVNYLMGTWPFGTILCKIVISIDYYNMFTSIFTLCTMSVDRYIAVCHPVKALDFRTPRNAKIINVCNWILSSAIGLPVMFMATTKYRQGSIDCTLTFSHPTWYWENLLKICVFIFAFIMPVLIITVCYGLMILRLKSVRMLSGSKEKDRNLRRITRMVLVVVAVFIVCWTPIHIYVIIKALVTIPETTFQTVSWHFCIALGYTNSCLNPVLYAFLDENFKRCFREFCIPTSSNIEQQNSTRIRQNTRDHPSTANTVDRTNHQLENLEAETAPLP
# Sequence of Mu-type opioid receptor (Homo sapiens) + Delta-type opioid receptor (Homo sapiens) (P41143 whole entry, looked up): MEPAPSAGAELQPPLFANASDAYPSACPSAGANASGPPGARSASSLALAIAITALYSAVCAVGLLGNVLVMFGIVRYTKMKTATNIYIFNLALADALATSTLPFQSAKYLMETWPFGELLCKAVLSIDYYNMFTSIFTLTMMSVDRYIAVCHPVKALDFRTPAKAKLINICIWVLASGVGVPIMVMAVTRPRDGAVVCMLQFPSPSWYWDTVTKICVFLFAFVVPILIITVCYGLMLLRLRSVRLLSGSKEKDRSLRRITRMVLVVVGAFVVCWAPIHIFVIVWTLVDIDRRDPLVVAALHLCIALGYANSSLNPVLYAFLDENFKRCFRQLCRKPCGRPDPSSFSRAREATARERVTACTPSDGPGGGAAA
row,Compound,EC50
1,CCCCCCCCCCCCCCCC[n+]1ccc(/C=N/O)cc1,> 64.6 µM (inactive)
2,Clc1ccc(C2=Nn3c(nnc3-c3cc(-c4ccccc4)n[nH]3)SC2)cc1,inactive
3,Cc1ccc2sc(N(CCCN(C)C)C(=O)CN3C(=O)c4ccccc4C3=O)nc2c1C,> 64.6 µM (inactive)
4,NC(Cc1ccc(C(F)(F)F)cc1)c1csc(Nc2nccc(C(F)(F)F)n2)n1 (stereo unspecified),> 92.4 µM (inactive)
5,CN(C)CCCNC(=O)c1ccc(-c2nc(-c3ccc(Cl)cc3)cs2)cc1,> 64.6 µM (inactive)
6,CCCCCCCCCCOC(=O)Cn1c(COc2cccc(C)c2)[n+](C)c2ccccc21,> 64.6 µM (inactive)
7,Cc1ccc2[nH]c(=O)c3cc(C(=O)N(CCCOC(C)C)Cc4ccco4)sc3c2c1,> 92.5 µM (inactive)
8,CC(=O)Nc1cc(-c2ccc(S(C)(=O)=O)cc2)cn2c(-c3ccc(F)c(Cl)c3)cnc12,> 64.6 µM (inactive)
9,COc1ccccc1-c1cc(NC=O)c2ncc(-c3cccc(C(F)(F)F)c3)n2c1,> 64.6 µM (inactive)
10,CN(C)CCOc1ccc(-c2c(-c3ccccc3)sc3ccccc23)cc1,> 92.5 µM (inactive)
11,COc1cccc(-c2sc3ccccc3c2-c2ccc(OCCN(C)C)cc2)c1,> 64.6 µM (inactive)
12,CCN1CCC(O)(/C=C/c2ccc(C(C)C)cc2)C(C(=O)/C=C/c2ccc(C(C)C)cc2)C1 (stereo unspecified),> 64.6 µM (inactive)
13,COC(=O)c1c(NC(=O)CC2SC(N)=NC2=O)sc2c1CCC(C(C)(C)C)C2 (stereo unspecified),> 92.5 µM (inactive)
14,Cc1cccc(NC(=S)NC(=O)C(c2ccccc2)c2ccccc2)n1,> 92.5 µM (inactive)
15,CC(=O)c1cccc(-c2cnc3c(NC=O)cc(-c4ccc(N(C)C)cc4)cn23)c1,> 64.6 µM (inactive)
16,O=C(CCN1C(=O)/C(=C/C=C/c2ccccc2)SC1=S)Nc1ccccn1,> 92.5 µM (inactive)
17,CC(=O)Nc1cc(-c2ccccc2)cn2c(-c3ccc(F)cc3)cnc12,> 64.6 µM (inactive)
18,Oc1ccc(N2CCN(c3ncnc4sc(-c5ccccc5)cc34)CC2)cc1,> 92.4 µM (inactive)

row,Compound,EC50
1,COc1cccc(-c2cnc3c(NC(C)=O)cc(-c4cc(OC)c(OC)c(OC)c4)cn23)c1,> 64.6 µM (inactive)
2,c1ccc(-c2sc3ccccc3c2-c2ccc(OCCN3CCCC3)cc2)cc1,> 92.5 µM (inactive)
3,CCCCCCCCNS(=O)(=O)CCNCCc1ccccc1,> 92.4 µM (inactive)
4,CCOCCCN(Cc1ccco1)C(=O)c1cc2c(=O)[nH]c3ccc(C)cc3c2s1,> 64.6 µM (inactive)
5,COc1ccc(-c2cc(NC=O)c3ncc(-c4ccccc4)n3c2)cc1OC,> 64.6 µM (inactive)
6,Nc1c(-c2cccs2)cnn1-c1nc(-c2ccc(Cl)cc2Cl)cs1,> 64.6 µM (inactive)
7,Cc1ccc(CN2CCC(c3cc(-c4ccc(Cl)cc4)n[nH]3)CC2)cc1,> 92.5 µM (inactive)
8,COc1cccc(-c2cnc3c(NC=O)cc(-c4cc(OC)c(OC)c(OC)c4)cn23)c1,> 92.5 µM (inactive)
9,Cc1nc(NC(=O)c2cccc(-c3cc4ccccc4oc3=O)c2)ccc1Br,> 64.6 µM (inactive)
10,CC(C)c1ccc(NC(=O)CSc2ncccc2C(=O)Oc2cccc([N+](=O)[O-])c2)cc1,> 92.5 µM (inactive)
11,Cc1cc(N2CCN(C(=O)c3ccco3)CC2)n2nc(-c3cccc(Cl)c3)cc2n1,> 64.6 µM (inactive)
12,Cc1ccc(Sc2ccc(NC(=O)CCl)cc2)cc1C,inactive
13,CC(=O)Nc1cc(-c2ccc(N(C)C)cc2)cn2c(-c3ccc(F)c(Cl)c3)cnc12,> 92.5 µM (inactive)
14,COc1ccc2oc(=O)c(-c3csc(Nc4cccc(O)c4)n3)cc2c1,> 92.4 µM (inactive)
15,CN(C)CCNC(=O)c1cccc(-c2cnc3c(NC=O)cc(-c4cccc(C(F)(F)F)c4)cn23)c1,> 64.6 µM (inactive)
16,CCCCCCOc1ccc(/C(C)=N/NC2=NCCN2)cc1,> 92.4 µM (inactive)
17,COc1ccc(COc2ccsc2C(=O)Nc2ccc(Cl)c(Cl)c2)cc1,> 64.6 µM (inactive)
18,CCCCCCCCCCCCCCCC[n+]1cccc(C(=O)N(CC)CC)c1,> 64.6 µM (inactive)

# Reference: PubChem BioAssay AID602264 (The Scripps Research Institute Molecular Screening Center, 2012)
